Measured values taken from patent US20250295627A1 (Leibniz-Institut Fuer Neurobiologie, priority 2022, published 2025).

Columns and labels:
TBA2.1 and 5×FAD mice [1] = assay: Acute hippocampal slices, CA1-LTP recordings; type: ex vivo, mouse; settings: for basal synaptic transmission: bath application
Protocol: The 350 μm thick hippocampal slices were prepared according to a previously described protocol (Grochowska et al., 2017). Briefly, hippocampal slices were incubated in bubbling 95% 02, 5% CO2 ASCF solution for 2 h at 31+/−1° C. Field excitatory postsynaptic potentials (fEPSPs) were measured in stratum radiatum after stimulation of CA1 Schaffer collateral fibers with ACSF glass capillary microelectrodes (3-5 MΩ). fEPSPs were amplified by Extracellular Amplifier (EXT-02B, npi, Germany) and digitized at a sample frequency of 5 kHz by Digidata 1201 plus AD/Da converter (CED, UK). The strength of stimuli was adjusted to 25-35% of the maximum fEPSP slope values. Single stimuli were applied at 0.0333 Hz and averaged every 5 min. Stable baseline recordings were followed by tetanisation with 3×1 s stimulus trains at 100 Hz with a 10 min inter-train interval.
(§1) . For TBA2.1 mice (both sexes), treatment started at the age of 4 weeks. The animals were group housed and force fed for 4 weeks. […] Treatment in 5×FAD male mice started at the age of 12 weeks. Here, animals were single housed right away and given a choice between voluntary and forced feeding. […] During the course of the 7th week of treatment, animals were either subjected to perfusion to obtain their brains for subsequent immunohistochemistry or they were culled to obtained native brains for electrophysiological recordings.

TBA2.1 mice = assay: Open-field test; type: in vivo, mouse
Description: as §1
Locomotor activity was assessed using the Open-field test, performed in a square arena (45×45×45 cm) made of black Plexiglas and dimly illuminated. The animals were placed in the center of the arena, and were left to explore it for 10 min. The sessions were video recorded, and the distance travelled in the maze as well as the speed was tracked with ANY-maze Software 7.0 (Stoelting Co). Data were analyzed in 1 min bins.

TBA2.1 and 5×FAD mice [2] = assay: Synaptic density in stratum lacunosum moleculare of CA1 after oral Nitarsone; type: in vivo, mouse
Protocol: Animals were anesthetized with ketamine/xylazine (Medistar) and transcardially perfused with 0.9% saline followed by 4% PFA. The brains were post-fixed in 4% PFA in PBS overnight, followed by immersion in 0.5 M sucrose for 24 h and then 1M sucrose for another 1 to 2 days or until the brains were sunken down. The brains were snap-frozen and cut into 35 μm thick coronal cryosections (Leica CM3050S, Leica-Microsystems). The sections were blocked in a buffer (0.3% TX-100, 10% NGS in PBS) for 30 min at RT, and incubated with primary antibodies diluted in the blocking solution, overnight at 4° C. Secondary antibodies were applied for 2 h at RT. Sections were counterstained with DAPI and mounted in Mowiol 4-88 (Merck Chemicals). For the detection of Aβ, the heat-based antigen retrieval method was used. For anti-Aβ staining, following permeabilization, brain sections were immersed into […] sodium citrate solution (Fluka, pH=9) for 30 min at 80° C. Imaging of nuclear pCREB/CREB immunoreactivities in cryosections was performed using a Leica TCS SP5 system (Leica-Microsystems). Images were acquired sequentially with a HCX ApoL20×/1.0 water objective, optical zoom 4. Sections were imaged with constant laser/detector settings along the z-axis with 400 nm step in a 512×512 pixel format.
. For TBA2.1 mice (both sexes), treatment started at the age of 4 weeks. […]

[3] = estimated life-long consumption of turkey meat; cited from earlier work
[4] = type: in vivo, mouse; settings: 50 mg/kg daily oral, treated versus control animals
Description: as §1

TBA2.1 and 5×FAD mice [5] = assay: Novel object recognition and location; type: in vivo, mouse
Description: as §1
The hippocampus-dependent memory was assessed using a novel object location and novel object recognition tasks. Assays were performed as described elsewhere (Andres-Alonso et al., 2019). Briefly, training and testing were done in an open field square arena made out of plastic (50 cm×50 cm). The mice were habituated in the empty arena for 20 min. Subsequently, 2 identical objects were introduced to the maze and the animals could explore the objects in 2 training session, 20 min each. 2 h afterwards, in the memory test phase, one object was replaced with an unfamiliar, unknown object (novel object recognition). Afterwards, the location of one object was changed ([…]). During all sessions, the amount of time the animals explored the objects was recorded, and a discrimination index was calculated using the formula DI=[(Tnew−Tfamiliar)/(Tnew+Tfamiliar)]*100. The arena was cleaned with 5% ethanol before and after each animal was tested.

TBA2.1 and 5×FAD mice [6] = assay: Y-maze object recognition short-term memory task; type: in vivo, mouse; settings: 3 h between training and test, versus vehicle
Description: as §1
Y-maze Object Recognition short-term memory task was performed according to (Creighton et al., 2019). During training session, two identical objects (3D printed rectangle) were placed at the end of arms B and C and the animal was left to explore both objects for 10 min. In order to assess short-term memory, retrieval performance was tested 3 h after training with one of the familiar objects replaced by a novel one (wooden cube). The mice were placed in the arena, and had 5 min to explore both objects. During both sessions the time animals explored the objects was scored, and a discrimination index was calculated, in the same manner as for the novel object recognition test.

TBA2.1 and 5×FAD mice [7] = assay: Amyloid load (amyloid-β positive puncta) in CA1 after oral Nitarsone; type: in vivo, mouse
Protocol: Animals were anesthetized with ketamine/xylazine (Medistar) and transcardially perfused with 0.9% saline followed by 4% PFA. The brains were post-fixed in 4% PFA in PBS overnight, followed by immersion in 0.5 M sucrose for 24 h and then 1M sucrose for another 1 to 2 days or until the brains were sunken down. The brains were snap-frozen and cut into 35 μm thick coronal cryosections (Leica CM3050S, Leica-Microsystems). The sections were blocked in a buffer (0.3% TX-100, 10% NGS in PBS) for 30 min at RT, and incubated with primary antibodies diluted in the blocking solution, overnight at 4° C. Secondary antibodies were applied for 2 h at RT. Sections were counterstained with DAPI and mounted in Mowiol 4-88 (Merck Chemicals). For the detection of Aβ, the heat-based antigen retrieval method was used. […]
All quantifications were done within the distal CA1 region of the hippocampus. […] CREB and pCREB immunoreactivity of every single nucleus in a 100 μm stretch was measured in arbitrary units of pixel intensity. […] The neuronal loss was quantified based on NeuN staining (the number of neurons/CA1 length). For the quantification of microglia and astrocytes the number of cells based on overlaid DAPI and Iba-1 or GFAP signal was quantified within the rectangular ROI. Aβ plaques were counted in the region where the neuronal loss was quantified.

pCREB = pCREB in motor neurons differentiated from hiPSC (ALS model); type: cell-based, human; settings: hiPSC-derived motor neurons, treated at day in vitro 56

SMILES: O=[N+]([O-])c1ccc([As](=O)(O)O)cc1 [Nitarsone, (4-nitrophenyl) arsonic acid]
- basal synaptic transmission (TBA2.1 and 5×FAD mice [1]; 5×FAD mice): not affected
- basal synaptic transmission (TBA2.1 and 5×FAD mice [1]; TBA2.1 mice): not affected
- late-phase LTP, fEPSP slope in the last 30 minutes of recordings (TBA2.1 and 5×FAD mice [1]; slices of Nitarsone-fed 5×FAD mice, postnatal week 19): rescued
- late-phase LTP, fEPSP slope in the last 30 minutes of recordings (TBA2.1 and 5×FAD mice [1]; slices of Nitarsone-fed TBA2.1 mice, postnatal week 11): rescued
- preference index (TBA2.1 mice; FIG. 11 panel L, TBA2.1 mice): does not influence preference index
- distance travelled during open field arena exploration (TBA2.1 mice; FIG. 11 panel M, TBA2.1 mice): slightly normalizes increased distance travelled
- preference index (TBA2.1 mice; FIG. 11 panel N, printed TBA2.1 mice): does not influence preference index
- distance travelled during open field arena exploration (TBA2.1 mice; FIG. 11 panel O, printed TBA2.1 mice): slightly normalizes increased distance travelled
- synapse loss in the stratum lacunosum moleculare (TBA2.1 and 5×FAD mice [2]; 5×FAD mice): clearly reduced synapse loss
- synapse loss in the stratum lacunosum moleculare (TBA2.1 and 5×FAD mice [2]; TBA2.1 mice): clearly reduced synapse loss
- increased lifetime risk of developing cancer [3]: 0.00031%
- body weight [4]: no effect on the body weight
- memory in novel location recognition task (TBA2.1 and 5×FAD mice [5]; 5×FAD mice): rescued memory
- memory in novel object recognition task (TBA2.1 and 5×FAD mice [5]; 5×FAD mice): rescued memory
- memory in novel location recognition task (TBA2.1 and 5×FAD mice [5]; TBA2.1 mice): rescued memory
- memory in novel object recognition task (TBA2.1 and 5×FAD mice [5]; TBA2.1 mice): rescued memory
- discrimination performance, Y-maze object recognition (TBA2.1 and 5×FAD mice [6]; 5×FAD mice): improved discrimination performance
- discrimination performance, Y-maze object recognition (TBA2.1 and 5×FAD mice [6]; TBA2.1 mice): improved discrimination performance
- amyloid load (TBA2.1 and 5×FAD mice [7]; 5×FAD mice): did not detect any effects
- amyloid load (TBA2.1 and 5×FAD mice [7]; TBA2.1 mice): did not detect any effects
- impairment of CREB function (pCREB): rescues the impairment of CREB function
